Assay: Transdermal delivery of melatonin: plasma level of melatonin after applying composition to skin of a subject
Conditions: for concentration at 0 h / concentration at 1 h / concentration at 2 h / concentration at 0 hr / concentration at 1 hr / concentration at 2 hr / concentration at 4 hr / concentration at 8 hr / concentration at 4 h / concentration at 8 h: human, plasma, topical, 3 mg

Plasma level of melatonin (2-(Dimethylamino)ethyl 2-(4-isobutylphenyl)propionate hydrochloride 222.60 mM, 0.60 mL applied to skin, 1 hr after transdermal administration): 1.5 ng/mL
Plasma level of melatonin (2-(Dimethylamino)ethyl 2-(4-isobutylphenyl)propionate hydrochloride 222.60 mM, 0.60 mL applied to skin, 2 hr after transdermal administration): 1.7 ng/mL
Plasma level of melatonin (2-(Dimethylamino)ethyl 2-(4-isobutylphenyl)propionate hydrochloride 222.60 mM, 0.60 mL applied to skin, 4 hr after transdermal administration): 1.6 ng/mL
Plasma level of melatonin (2-(Dimethylamino)ethyl 2-(4-isobutylphenyl)propionate hydrochloride 222.60 mM, 0.60 mL applied to skin, 8 hr after transdermal administration): 1.5 ng/mL
Plasma level of melatonin (4-(Diethylamino)butyl 2-(4-isobutylphenyl)propionate hydrochloride 189.21 mM, 0.60 mL applied to skin, 0 hr after transdermal administration): 0 ng/mL
Plasma level of melatonin (4-(Diethylamino)butyl 2-(4-isobutylphenyl)propionate hydrochloride 189.21 mM, 0.60 mL applied to skin, 1 hr after transdermal administration): 1.4 ng/mL
Plasma level of melatonin (4-(Diethylamino)butyl 2-(4-isobutylphenyl)propionate hydrochloride 189.21 mM, 0.60 mL applied to skin, 2 hr after transdermal administration): 1.5 ng/mL
Plasma level of melatonin (4-(Diethylamino)butyl 2-(4-isobutylphenyl)propionate hydrochloride 189.21 mM, 0.60 mL applied to skin, 4 hr after transdermal administration): 1.5 ng/mL
Plasma level of melatonin (4-(Diethylamino)butyl 2-(4-isobutylphenyl)propionate hydrochloride 189.21 mM, 0.60 mL applied to skin, 8 hr after transdermal administration): 1.3 ng/mL
Plasma level of melatonin (5-(Diethylamino)pentyl 2-(4-isobutylphenyl)propionate hydrochloride 182.28 mM, 0.60 mL applied to skin, 1 hr after transdermal administration): 1.6 ng/mL
Plasma level of melatonin (5-(Diethylamino)pentyl 2-(4-isobutylphenyl)propionate hydrochloride 182.28 mM, 0.60 mL applied to skin, 2 hr after transdermal administration): 1.9 ng/mL
Plasma level of melatonin (5-(Diethylamino)pentyl 2-(4-isobutylphenyl)propionate hydrochloride 182.28 mM, 0.60 mL applied to skin, 4 hr after transdermal administration): 1.9 ng/mL
Plasma level of melatonin (5-(Diethylamino)pentyl 2-(4-isobutylphenyl)propionate hydrochloride 182.28 mM, 0.60 mL applied to skin, 8 hr after transdermal administration): 1.7 ng/mL
Plasma level of melatonin (Helper esters: None (0 mM), 2.0 mL applied to skin, 0 hr after transdermal administration): 0.0 ng/mL
concentration at 0 h: 0 ng/mL
concentration at 0 h (Plasma level of melatonin, Helper esters: None (0 mM), 2.0 mL applied to skin, 0 hr after transdermal administration): 0 ng/mL
concentration at 1 h (Plasma level of melatonin, Helper esters: None (0 mM), 2.0 mL applied to skin, 1 hr after transdermal administration): 0.1 ng/mL
concentration at 2 h (Plasma level of melatonin, Helper esters: None (0 mM), 2.0 mL applied to skin, 2 hr after transdermal administration): 0.1 ng/mL
concentration at 0 hr (Plasma level of melatonin, Isoleucine hexyl ester 278.04 mM, 0.60 mL applied to skin, 0 hr after transdermal administration): 0 ng/mL
concentration at 1 hr (Plasma level of melatonin, Isoleucine hexyl ester 278.04 mM, 0.60 mL applied to skin, 1 hr after transdermal administration): 1.2 ng/mL
concentration at 2 hr (Plasma level of melatonin, Isoleucine hexyl ester 278.04 mM, 0.60 mL applied to skin, 2 hr after transdermal administration): 1.3 ng/mL
concentration at 4 hr (Plasma level of melatonin, Isoleucine hexyl ester 278.04 mM, 0.60 mL applied to skin, 4 hr after transdermal administration): 1.4 ng/mL
concentration at 8 hr (Plasma level of melatonin, Isoleucine hexyl ester 278.04 mM, 0.60 mL applied to skin, 8 hr after transdermal administration): 1.3 ng/mL
concentration at 0 hr (Plasma level of melatonin, Isoleucine isopropyl ester 333.76 mM, 0.60 mL applied to skin, 0 hr after transdermal administration): 0 ng/mL
concentration at 1 hr (Plasma level of melatonin, Isoleucine isopropyl ester 333.76 mM, 0.60 mL applied to skin, 1 hr after transdermal administration): 1.7 ng/mL
concentration at 2 hr (Plasma level of melatonin, Isoleucine isopropyl ester 333.76 mM, 0.60 mL applied to skin, 2 hr after transdermal administration): 1.8 ng/mL
concentration at 4 hr (Plasma level of melatonin, Isoleucine isopropyl ester 333.76 mM, 0.60 mL applied to skin, 4 hr after transdermal administration): 1.9 ng/mL
concentration at 8 hr (Plasma level of melatonin, Isoleucine isopropyl ester 333.76 mM, 0.60 mL applied to skin, 8 hr after transdermal administration): 1.8 ng/mL
concentration at 0 h (Plasma level of melatonin, Leucine hexyl ester hydrochloride 278.04 mM, 0.60 mL applied to skin, 0 hr after transdermal administration): 0 ng/mL
concentration at 1 h (Plasma level of melatonin, Leucine hexyl ester hydrochloride 278.04 mM, 0.60 mL applied to skin, 1 hr after transdermal administration): 1.4 ng/mL
concentration at 2 h (Plasma level of melatonin, Leucine hexyl ester hydrochloride 278.04 mM, 0.60 mL applied to skin, 2 hr after transdermal administration): 1.5 ng/mL
concentration at 4 hr (Plasma level of melatonin, Leucine hexyl ester hydrochloride 278.04 mM, 0.60 mL applied to skin, 4 hr after transdermal administration): 1.5 ng/mL
concentration at 8 hr (Plasma level of melatonin, Leucine hexyl ester hydrochloride 278.04 mM, 0.60 mL applied to skin, 8 hr after transdermal administration): 1.3 ng/mL
concentration at 0 h (Plasma level of melatonin, Leucine isopropyl ester hydrochloride 333.76 mM, 0.60 mL applied to skin, 0 hr after transdermal administration): 0 ng/mL
concentration at 1 h (Plasma level of melatonin, Leucine isopropyl ester hydrochloride 333.76 mM, 0.60 mL applied to skin, 1 hr after transdermal administration): 1.7 ng/mL
concentration at 2 h (Plasma level of melatonin, Leucine isopropyl ester hydrochloride 333.76 mM, 0.60 mL applied to skin, 2 hr after transdermal administration): 1.8 ng/mL
concentration at 4 h (Plasma level of melatonin, Leucine isopropyl ester hydrochloride 333.76 mM, 0.60 mL applied to skin, 4 hr after transdermal administration): 1.9 ng/mL
concentration at 8 h (Plasma level of melatonin, Leucine isopropyl ester hydrochloride 333.76 mM, 0.60 mL applied to skin, 8 hr after transdermal administration): 1.8 ng/mL
concentration at 0 hr (Plasma level of melatonin, Phenylalanine isopropyl ester hydrochloride 287.21 mM, 0.60 mL applied to skin, 0 hr after transdermal administration): 0 ng/mL
concentration at 1 hr (Plasma level of melatonin, Phenylalanine isopropyl ester hydrochloride 287.21 mM, 0.60 mL applied to skin, 1 hr after transdermal administration): 1.6 ng/mL
concentration at 2 hr (Plasma level of melatonin, Phenylalanine isopropyl ester hydrochloride 287.21 mM, 0.60 mL applied to skin, 2 hr after transdermal administration): 1.7 ng/mL
concentration at 4 hr (Plasma level of melatonin, Phenylalanine isopropyl ester hydrochloride 287.21 mM, 0.60 mL applied to skin, 4 hr after transdermal administration): 1.6 ng/mL
concentration at 8 hr (Plasma level of melatonin, Phenylalanine isopropyl ester hydrochloride 287.21 mM, 0.60 mL applied to skin, 8 hr after transdermal administration): 1.7 ng/mL
concentration at 0 h (Plasma level of melatonin, Phenylalanine octyl ester hydrochloride 223.02 mM, 0.60 mL applied to skin, 0 hr after transdermal administration): 0 ng/mL
concentration at 1 h (Plasma level of melatonin, Phenylalanine octyl ester hydrochloride 223.02 mM, 0.60 mL applied to skin, 1 hr after transdermal administration): 1.3 ng/mL
concentration at 2 h (Plasma level of melatonin, Phenylalanine octyl ester hydrochloride 223.02 mM, 0.60 mL applied to skin, 2 hr after transdermal administration): 1.4 ng/mL
concentration at 4 h (Plasma level of melatonin, Phenylalanine octyl ester hydrochloride 223.02 mM, 0.60 mL applied to skin, 4 hr after transdermal administration): 1.3 ng/mL
concentration at 8 h (Plasma level of melatonin, Phenylalanine octyl ester hydrochloride 223.02 mM, 0.60 mL applied to skin, 8 hr after transdermal administration): 1.2 ng/mL
concentration at 0 hr (Plasma level of melatonin, Table 20 control, A− N/A, helper esters 0 mM, 2.0 mL applied, 0 hr after transdermal administration): 0 ng/mL
concentration at 1 hr (Plasma level of melatonin, Table 20 control, A− N/A, helper esters 0 mM, 2.0 mL applied, 1 hr after transdermal administration): 0.1 ng/mL
concentration at 2 h (Plasma level of melatonin, Table 20 control, A− N/A, helper esters 0 mM, 2.0 mL applied, 2 hr after transdermal administration): 0.1 ng/mL
SMILES: COc1ccc2[nH]cc(CCNC(C)=O)c2c1 [Melatonin]
